Data on 1 compound can be found in article PMC12054466 (RSC Advances, 2025).

Read-outs that look alike come from different tables or passages of the source.

Series [1] is classed as binding.
The conditions of series [2]: rabbits, single oral dose 10 mg kg^−1, n = 5, mean; unit as in Table 4.

Take `CC(C)(C(=O)O)c1ccc(C(O)CCCN2CCC(C(O)(c3ccccc3)c3ccccc3)CC2)cc1` (stereo not shown) [fexofenadine, Fexofenadine]: the “Ksv (Stern–Volmer quenching constant)” value is recorded as 1.36 10^6 M^−1 in series [1] (298 K (25 °C)), 1.09 10^6 M^−1 in series [1] (303 K) and 0.95 10^6 M^−1 in series [1] (308 K (35 °C)). For the same compound, in series [2], the λz is 0.06 h.
